Results from US20260191835A1, “COMBINATIONS COMPRISING A MENIN-MLL INHIBITOR AND AT LEAST ONE OTHER THERAPEUTIC AGENT” (JANSSEN PHARMACEUTICA NV, priority 2022, published 2026).

Legend:
MEIS1 mRNA expression = MEIS1 mRNA expression assay (Quantigene Singleplex) in MOLM14; type: cell-based; conditions: Homo sapiens, MOLM-14, 48 h, MOLM14 cells, 48 hours with compound
Description: 2b) MEIS1 mRNA Expression Assay
MEIS1 mRNA expression upon treatment of compound was examined by Quantigene Singleplex assay (Thermo Fisher Scientific). This technology allows for direct quantification of mRNA targets using probes hybridizing to defined target sequences of interest and the signal is detected using a Multimode plate reader Envision (PerkinElmer). The MOLM14 cell line was used for this experiment. Cells were plated in 96-well plates at 3,750 cells/well in the presence of increasing concentrations of compounds. After incubation of 48 hours with compounds, cells were lysed in lysis buffer and incubated for 45 minutes at 55° C. Cell lysates were mixed with human MEIS1 specific capture probe or human RPL28 (Ribosomal Protein L28) specific probe as a normalization control, as well as blocking probes. Cell lysates were then transferred to the custom assay hybridization plate (Thermo Fisher Scientific) and incubated for 18 to 22 hours at 55° C. Subsequently, plates were washed to remove unbound materials followed by sequential addition of preamplifiers, amplifiers, and label probe. Signals (=gene counts) were measured with a Multimode plate reader Envision. IC50s were calculated by dose-response modelling using appropriate software. For all non-housekeeper genes response equal counts corrected for background and relative expression. For each sample, each test gene signal (background subtracted) was divided by the normalization gene signal (RPL28: background subtracted). Fold changes were calculated by dividing the normalized values for the treated samples by the normalized values for the DMSO treated sample. Fold changes of each target gene were used for the calculation of IC50s.

MOLM14 cells = assay: Proliferation assay (spheroid assay), MOLM14; type: cell-based; conditions: Homo sapiens, MOLM-14, 192 h, 8 days; read-out: spheroid assay_MOLM14 IC50
Description: (§1) The anti-proliferative effect of menin/MLL protein/protein interaction inhibitor test compounds was assessed in human leukemia cell lines. The cell line MOLM14 harbors a MLL translocation and expresses the MLL fusion protein MLL-AF9, respectively, as well as the wildtype protein from the second allele. OCI-AML3 cells that carry the NPM1c gene mutation were also tested. […] KO-52 was used as a control cell line containing two MLL (KMT2A) wildtype alleles in order to exclude compounds that display general cytotoxic effects.
(§2) MOLM14 cells were cultured in RPMI-1640 (Sigma Aldrich) supplemented with 10% heat-inactivated fetal bovine serum (HyClone), 2 mM L-glutamine (Sigma Aldrich) and 50 μg/ml gentamycin (Gibco). KO-52 and OCI-AML3 cell lines were propagated in alpha-MEM (Sigma Aldrich) supplemented with 20% heat-inactivated fetal bovine serum (HyClone), 2 mM L-glutamine (Sigma Aldrich) and 50 µg/ml gentamycin (Gibco).
In order to assess the anti-proliferative effects, 200 MOLM14 cells, […] or 300 KO-52 cells were seeded in 200 μl media per well in 96-well round bottom, ultra-low attachment plates (Costar, catalogue number 7007). Cell seeding numbers were chosen based on growth curves to ensure linear growth throughout the experiment. Test compounds were added at different concentrations and the DMSO content was normalized to 0.3%. Cells were incubated for 8 days at 37° C. and 5% CO2. Spheroid like growth was measured in real-time by live-cell imaging (IncuCyteZOOM, Essenbio, 4× objective) acquiring images at day 8. Confluence (%) as a measure of spheroid size was determined using an integrated analysis tool.
In order to determine the effect of the test compounds over time, the confluence in each well as a measure of spheroid size, was calculated. Confluence of the highest dose of a reference compound was used as baseline for the LC (Low control) and the confluence of DMSO treated cells was used as 0% cytotoxicity (High Control, HC).
Absolute IC50 values were calculated as percent change in confluence as follows: • LC=Low Control: cells treated with e.g. […] of the cytotoxic agent staurosporin, or e.g. cells treated with a high concentration of an alternative reference compound • HC=High Control: Mean confluence (%) (DMSO treated cells)
GraphPad Prism (version 7.00) was used to calculate the IC50. Dose-response equation was used for the plot of % Effect vs Log 10 compound concentration with a variable slope and fixing the maximum to 100% and the minimum to 0%.

KO-52 cells = assay: Proliferation assay (spheroid assay), KO-52 control cell line; type: cell-based; conditions: Homo sapiens, 192 h, 8 days; MLL wildtype control cell line; read-out: spheroid assay_KO-52 IC50
Description: as §1, §2
In order to assess the anti-proliferative effects, 200 MOLM14 cells, 200° C. […] Spheroid like growth was measured in real-time by live-cell imaging (IncuCyteZOOM, Essenbio, 4× objective) acquiring images at day 8. Confluence (%) as a measure of spheroid size was determined using an integrated analysis tool.
In order to determine the effect of the test compounds over time, the confluence in each well as a measure of spheroid size, was calculated. […]

MOLM-13 tumors = assay: Efficacy (survival) in disseminated MOLM-13 (KMT2A-rearranged) model in NSG mice; type: in vivo; conditions: NSG mice bearing established MOLM-13 tumors, vs vehicle; Azacitidine 2 mg/kg ip QD × 7; Compound 51 2 mg/kg po QD × 28; n = 10
Description: 4) Efficacy of Menin-MLL Inhibitor in Combination with Azacitidine in MOLM-13 (KMT2A-Rearranged) Model in NSG Mice
Compound 51 was formulated in purified pyrogen-free deionized water, pH 4.0 and prepared to reach a total volume of 8 mL/kg. Doses were adjusted by individual body weight each day. Working stocks of Compound 51 were prepared once per week for each study and stored at 25° C.
Female NSG (NOD.Cg-Prkdc^scid Il2rg^tm1Wjl/SzJ) mice were used when they were approximately 6 to 8 weeks of age and weighed approximately 25 g. All animals could acclimate and recover from any shipping-related stress for a minimum of 7 days prior to experimental use. […]
Animals were monitored daily for clinical signs related to either compound toxicity or tumor burden (i.e., hind limb paralysis, lethargy, etc.).
For survival assessment, results were plotted as the percentage survival against days post tumor implant. […] Median survival was determined utilizing Kaplan-Meier survival analysis. The percent increased life span (ILS) was calculated as: ((median survival day of treated group−median survival day of control group)/median survival day of control group)×100. […]
Survival and body weight data were graphically represented utilizing Prism (Version 9). Statistical significance for body weights was evaluated as described above. […]

Compound | IC50 (MEIS1 mRNA expression) [nM] | IC50 (MOLM14 cells) [nM] | IC50 (KO-52 cells) [nM] | % ILS (increased life span) (MOLM-13 tumors)
CC(=O)N1CCC(CN2CCC(Cc3cn(-c4ccc(F)cc4C(=O)N(C)C(C)C)c4cncc(C)c34)C2)CC1 (single isomer, unassigned) [Compound 50] | 89 | 39 | 2300 | –
Nc1ncn([C@@H]2O[C@H](CO)[C@@H](O)[C@H]2O)c(=O)n1 [Azacitidine, azacitidine, reference compound] | – | – | – | *37%
